This note sets out measurements from patent US7879887B2, “α-amino acid derivatives and medicaments containing the same as an active ingredient” (Nissan Chemical Industries, Ltd., priority 2006, dated 2011).

The subject of one experiment is leukemia cell line KG-1a. The experiment is described as follows: Cell proliferation inhibitory activity, KG-1a. It is filed as cell-based. Conditions: Homo sapiens, 96 h, cells counted 4 days later with Cell Counting Kit-8. Summed up: (§1)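 Read-out: Cell Counting Kit-8 cell counts taken 4 days after cells in medium were added to graded test-substance concentrations. Incubation was at 37° C under 5% CO2. IC50 values were based on vehicle wells set to 0% inhibition and wells lacking compound and cells set to 100%.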
(Tetrazolium dyes change colour on reduction, which living cells bring about.)

Another experiment concerns the target CDK2/Cyclin E complex (Homo sapiens, UniProt P24941). The experiment in a line: In vitro kinase assay, CDK2/Cyclin E complex. It counts as biochemical. The note with it: recombinant protein (Upstate); read-out: CDK2/cyclinE IC50. The method, then: (§2) Inhibitory activity against Aurora A, CDK1/Cyclin B complex, CDK2/Cyclin E complex and CDK3/Cyclin E complex were measured by in vitro kinase assay using recombinant proteins.

Experiment [1] concerns colon carcinoma cell line SW620. The experiment in a line: Cell proliferation inhibitory activity, SW620. It is filed as cell-based, human. The note with it: cells counted 4 days later with Cell Counting Kit-8. Summed up: as §1
Experiment [2] concerns ovarian cancer cell line IGROV1. The experiment is described as follows: Cell proliferation inhibitory activity, IGROV1. It counts as cell-based. The note with it: cells counted 4 days later with Cell Counting Kit-8. The method, then: (§3) Evaluations were carried out using colon carcinoma cell line SW620 (Cat. No. CCL-227), lung carcinoma cell line NCI-H460 (Cat. No. HTB-177), prostate cancer cell line DU 145 (Cat. No. HTB-81), breast cancer cell line MDA-MB-231 (Cat. No. HTB26) and leukemia cell line KG-1a (Cat. No. CCL-246.1) purchased from ATCC, pancreatic cancer cell line MIAPaCa-2 (Cat. No. CRL-1420) purchased from Dainippon Pharmaceutical, and ovarian cancer cell line IGROV1 received from the Netherland Cancer Institute. The cells were cultured under the conditions recommended by the supplier for each cell line, or with respect to IGROV1, according to the method described in Cancer Res. 59: 4559-4563, 1999. Cells suspended in media were added to solutions containing the test substances at various concentrations followed by culturing in a 5% CO2 incubator at 37° C. The numbers of cells were counted 4 days later with the Cell Counting Kit-8. IC50 values were calculated by assigning measured values in the case of not containing a test substance to an inhibition of 0%, and assigning measured values in the case of not containing a test substance or cells to an inhibition of 100%.

In another experiment the target is T1, CDK3/Cyclin E complex (Homo sapiens, UniProt Q00526).
T1 construct: purchased Upstate Inc. 14-487
T1 sequence (Q00526 whole entry): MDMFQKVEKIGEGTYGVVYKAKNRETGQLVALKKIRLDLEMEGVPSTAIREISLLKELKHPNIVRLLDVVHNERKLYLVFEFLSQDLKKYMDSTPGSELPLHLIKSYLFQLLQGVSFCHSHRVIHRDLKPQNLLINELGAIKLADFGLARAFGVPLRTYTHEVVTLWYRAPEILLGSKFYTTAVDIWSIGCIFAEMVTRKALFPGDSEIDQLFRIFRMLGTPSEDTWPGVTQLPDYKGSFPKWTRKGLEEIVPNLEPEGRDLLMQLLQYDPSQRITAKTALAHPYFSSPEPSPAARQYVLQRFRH
T1 sequence (P24864 whole entry partner): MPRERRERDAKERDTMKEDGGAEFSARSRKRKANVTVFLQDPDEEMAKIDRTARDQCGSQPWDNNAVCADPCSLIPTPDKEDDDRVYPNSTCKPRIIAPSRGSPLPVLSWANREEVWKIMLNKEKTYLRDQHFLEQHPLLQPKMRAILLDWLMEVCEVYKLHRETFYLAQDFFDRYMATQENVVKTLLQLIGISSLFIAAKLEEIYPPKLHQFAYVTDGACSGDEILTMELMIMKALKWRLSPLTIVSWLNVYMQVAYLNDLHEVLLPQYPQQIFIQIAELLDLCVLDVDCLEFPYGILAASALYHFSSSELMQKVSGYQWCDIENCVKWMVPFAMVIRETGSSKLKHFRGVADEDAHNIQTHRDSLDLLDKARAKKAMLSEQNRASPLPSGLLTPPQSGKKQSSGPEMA
The experiment in a line: In vitro kinase assay, CDK3/Cyclin E complex. It counts as biochemical. Conditions: recombinant protein (Upstate); read-out: CDK3/cyclinE IC50. The method, then: as §2

For experiment [3], the system named is breast cancer cell line MDA-MB-231. The experiment is described as follows: Cell proliferation inhibitory activity, MDA-MB-231. It counts as cell-based. The note with it: cells counted 4 days later with Cell Counting Kit-8. As to the method:
as §3

The target of a further experiment is T2, Aurora A (Homo sapiens, UniProt O14965).
T2 construct: purchased Upstate Inc. 14-511
T2 sequence (O14965 1-403): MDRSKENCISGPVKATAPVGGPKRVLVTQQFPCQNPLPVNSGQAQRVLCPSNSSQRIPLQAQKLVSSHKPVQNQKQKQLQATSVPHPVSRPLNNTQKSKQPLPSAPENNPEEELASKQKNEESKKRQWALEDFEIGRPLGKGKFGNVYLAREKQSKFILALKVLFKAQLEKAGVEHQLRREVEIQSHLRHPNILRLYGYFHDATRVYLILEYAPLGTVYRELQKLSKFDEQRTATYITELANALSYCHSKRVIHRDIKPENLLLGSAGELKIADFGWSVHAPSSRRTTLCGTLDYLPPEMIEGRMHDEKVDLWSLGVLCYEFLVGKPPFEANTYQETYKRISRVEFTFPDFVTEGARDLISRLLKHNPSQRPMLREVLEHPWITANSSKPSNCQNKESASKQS
The experiment in a line: In vitro kinase assay, Aurora A. It is filed as biochemical. The note with it: recombinant protein (Upstate). Summed up:
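Recombinant human enzymes assayed per supplier protocol. IC50 derived with compound-free wells set as 0% inhibition and compound- and enzyme-free wells as 100% inhibition.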

Experiment [4] deals with lung carcinoma cell line NCI-H460. The experiment is described as follows: Cell proliferation inhibitory activity, NCI-H460. It counts as cell-based. Conditions: cells counted 4 days later with Cell Counting Kit-8. As to the method:
as §3

For experiment [5], the system named is prostate cancer cell line DU 145. The experiment is described as follows: Cell proliferation inhibitory activity, DU 145. Conditions: cells counted 4 days later with Cell Counting Kit-8. It is filed as cell-based, human. The method, then:
as §3

A further experiment has as its target T3, CDK1/Cyclin B complex (Homo sapiens, UniProt P06493).
T3 construct: purchased Upstate Inc. 14-450
The experiment in a line: In vitro kinase assay, CDK1/Cyclin B complex. The note with it: recombinant protein (Upstate). It is filed as biochemical. As to the method: Inhibitory activity against Aurora A, CDK1/Cyclin B complex, CDK2/Cyclin E complex and CDK3/Cyclin E complex were measured by in vitro kinase assay using recombinant proteins. The assays were carried out by using recombinant proteins (Upstate Inc.) for Aurora A, CDK1/Cyclin B complex, CDK2/Cyclin E complex and CDK3/Cyclin E complex (respective cat. nos. 14-511, 14-450, 14-448 and 14-487), in accordance with the procedure described in the product instructions thereof. The 50% inhibitory concentrations (IC50 values) were calculated by assigning measured values in the case of not containing a test compound to an inhibition of 0%, and assigning measured values in the case of not containing a test compound and enzyme to an inhibition of 100%.

T3 sequence (P06493 whole entry): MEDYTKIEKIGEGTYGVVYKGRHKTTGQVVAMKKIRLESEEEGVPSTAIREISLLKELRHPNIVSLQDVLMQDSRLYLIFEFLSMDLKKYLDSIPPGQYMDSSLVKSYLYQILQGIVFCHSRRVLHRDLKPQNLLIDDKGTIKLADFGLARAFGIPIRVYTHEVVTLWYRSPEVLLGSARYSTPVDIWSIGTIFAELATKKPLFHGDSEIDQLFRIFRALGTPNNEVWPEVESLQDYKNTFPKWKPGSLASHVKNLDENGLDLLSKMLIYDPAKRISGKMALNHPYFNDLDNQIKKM
T3 sequence (P14635 whole entry partner): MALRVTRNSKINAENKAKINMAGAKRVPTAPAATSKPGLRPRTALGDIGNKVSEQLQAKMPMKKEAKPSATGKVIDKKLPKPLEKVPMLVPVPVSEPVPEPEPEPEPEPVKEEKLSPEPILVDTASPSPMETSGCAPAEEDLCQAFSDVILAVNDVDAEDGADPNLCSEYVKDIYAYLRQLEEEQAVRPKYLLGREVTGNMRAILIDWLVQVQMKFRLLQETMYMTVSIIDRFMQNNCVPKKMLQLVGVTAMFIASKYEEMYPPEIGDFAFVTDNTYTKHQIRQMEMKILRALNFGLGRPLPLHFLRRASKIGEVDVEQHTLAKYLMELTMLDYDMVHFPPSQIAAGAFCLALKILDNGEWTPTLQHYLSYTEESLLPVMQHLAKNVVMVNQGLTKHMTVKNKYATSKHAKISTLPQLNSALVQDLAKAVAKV

On to `O=C(CNc1cccc(F)c1)Nc1nc2ccc3[nH]ncc3c2s1` [compound 3], for which the IC50 came out at 100 nM in the experiment with leukemia cell line KG-1a; 199 nM on CDK2/Cyclin E complex; 1700 nM in [1] (Homo sapiens, SW-620, 96 h); 4900 nM in [2] (Homo sapiens, IGROV-1, 96 h); 391 nM at CDK3/Cyclin E complex; 4700 nM in [3] (Homo sapiens, 96 h).
As to `Nc1cccc(NCC(=O)Nc2nc3ccc4[nH]ncc4c3s2)c1` [compound 11], the IC50 was less than 100 nM in the experiment with leukemia cell line KG-1a; 192 nM at CDK2/Cyclin E complex; 1600 nM in experiment [1] (Homo sapiens, SW-620, 96 h); 4800 nM in experiment [2] (Homo sapiens, IGROV-1, 96 h); 355 nM on CDK3/Cyclin E complex.
Regarding `COC(=O)Nc1cc(NC(C)(C)C(=O)Nc2nc3ccc4[nH]ncc4c3s2)ccc1Cl` [compound 50], the IC50 is less than 100 nM in the experiment on leukemia cell line KG-1a; 435 nM on CDK2/Cyclin E complex; 2500 nM in [1] (Homo sapiens, SW-620, 96 h); 4800 nM in experiment [2] (Homo sapiens, IGROV-1, 96 h); 426 nM at Aurora A.
Take `CC(C)(Nc1ccc(Cl)c(OCCCS(N)(=O)=O)c1)C(=O)Nc1nc2c(C(F)(F)F)cc3[nH]ncc3c2s1` [compound 94]: the IC50 in [4] worked out at 2000 nM; in experiment [1], 1800 nM; in experiment [2] it was 4500 nM; in experiment [3], 2800 nM; in experiment [5], 4200 nM.
For `O=C(CNc1ccccc1)Nc1nc2ccc3[nH]ncc3c2s1` [compound 104], the IC50 in the experiment on leukemia cell line KG-1a is less than 100 nM; at CDK2/Cyclin E complex, 412 nM; in experiment [1] (Homo sapiens, SW-620, 96 h), 1000 nM; in experiment [2] (Homo sapiens, IGROV-1, 96 h), 4700 nM; at CDK3/Cyclin E complex it was 395 nM; in experiment [3] (Homo sapiens, 96 h), 4900 nM.
With `O=C(Nc1nc2ccc3[nH]ncc3c2s1)C1(Nc2ccc(Cl)cc2)CCCC1` [compound 115], the IC50 with leukemia cell line KG-1a was less than 100 nM; on CDK2/Cyclin E complex it was 154 nM; in experiment [1] (Homo sapiens, SW-620, 96 h), 700 nM; in experiment [2] (Homo sapiens, IGROV-1, 96 h), 4800 nM; at CDK3/Cyclin E complex it was 217 nM; in experiment [3] (Homo sapiens, 96 h), 3900 nM. The IC50 in experiment [5] (Homo sapiens, 96 h) was found to be 3200 nM.
As to `O=C(Nc1nc2ccc3[nH]ncc3c2s1)C1(Nc2ccc(Cl)cc2)CCCCC1` [compound 116], the IC50 on CDK1/Cyclin B complex worked out at 486 nM; with leukemia cell line KG-1a, 200 nM; on CDK2/Cyclin E complex it was 245 nM; in [1] (Homo sapiens, SW-620, 96 h) it was 1000 nM; in experiment [2] (Homo sapiens, IGROV-1, 96 h) it was 4900 nM; on CDK3/Cyclin E complex it was 412 nM. This molecule showed an IC50 in experiment [5] (Homo sapiens, 96 h) of 3400 nM.
For `O=C(Nc1nc2ccc3[nH]ncc3c2s1)C1(Nc2cccc(O)c2)CC1` [compound 122], the IC50 on CDK1/Cyclin B complex is 197 nM; with leukemia cell line KG-1a it was less than 100 nM; in experiment [4] (Homo sapiens, 96 h), 4000 nM; on CDK2/Cyclin E complex it was 56 nM; in experiment [1] (Homo sapiens, SW-620, 96 h) it was 1100 nM; in [2] (Homo sapiens, IGROV-1, 96 h), 4900 nM. The IC50 on CDK3/Cyclin E complex was 63 nM; in [3] (Homo sapiens, 96 h) it was 3100 nM; at Aurora A, 168 nM; in experiment [5] (Homo sapiens, 96 h), 4500 nM.
